# In patent US20140087362A1 (priority 2012, published 2014):
# Entries after “also recorded” stand apart in the source; their conditions may differ.
# Columns and labels:
# mouse bone marrow cells = assay: Side population by Hoechst 33342 staining and flow cytometry
# [1] = test system: A549 lung cancer cell line; assay: as above; type: cell-based, human
# ALDH1 = assay: ALDEFLUOR assay with or without DEAB; type: cell-based, human
# Procedure: Aldehyde dehydrogenase (ALDH1) is a useful marker for isolating primitive stem cell populations including normal human mammary stem and progenitor cells as well as transformed tumor-initiating stem cells. In this example, GI-101A, MCF7, MDA-MB-231, Hs 578T, and SUM139PT breast cancer cell lines were tested for activity of the ALDH1 marker using a commercial assay to detect ALDH1 expression and thereby identify tumor stem cells (the ALDEFLUOR® assay (available from Stemcell™ Technologies, Vancouver BC, CA; see Ginestier et al. (2007) Cell Stem Cell 1(5):555-567)). […] The ALDH substrate fluoresces upon cleavage by ALDH.
# ALDEFLUOR® assay fluorescence was excited at 488 nm and fluorescence emission was detected using a standard FITC 530/30 band pass filter. The sorting gates were established using propidium iodide stained cells for viability and the ALDEFLUOR® assay-stained cells treated with DEAB as negative controls.
# To supplement the flow cytometric analysis, the presence of ALDH in GI-101A was assessed visually by fluorescence microscopy. ALDEFLUOR® assay-labeled cells, with or without DEAB, were counterstained with the nuclear dye 4′,6-diamidino-2-phenylindole (DAPI). Phase contrast and fluorescent images of the cells were taken using a fluorescence microscope, equipped with the appropriate filters and a digital camera, using a 100× objective.
# First an ALDEFLUOR assay was performed on GI-101 cells in the presence or absence of DEAB inhibitor as described in Example 21. The ALDEFLUOR stained cells were then subjected to staining with CD44, CD24 and CD49f antibodies. The ALDEFLUOR stained cells were centrifuged for 10 minutes at 300×g at 4° C. and resuspended to a concentration of 2×10^7 cells per mL in cold staining buffer. 50 μL it of cells were added to 12×75 round bottoms tubes on ice for each stain. 10 μL diluted antibody mixture was added and incubated for 30-45 minutes in an ice bath to minimize release of the Hoechst dye. […] The cells were washed twice with 2 mL staining buffer at 4° C. The cells were resuspended in 400 μL it staining buffer and kept on ice until analyzed by flow cytometry.
# HMLE cells = assay: EMT induction in human mammary epithelial cells; type: cell-based
# Procedure: Human mammary epithelial cells (HMLE; Dr. Robert A. Weinberg) were plated at a density of about 50% in DMEM/F-12 medium and incubated overnight at 37° C. in a CO2 incubator. The cells were then cultured in inducing medium (DMEM/F-12 (1:1) medium supplemented with insulin, hydrocortisone, 5% FBS, and 2.5 ng/mL TGF-β1) to induce EMT or non-inducing medium (i.e. without TGF-β1). The inducing medium or non-inducing medium was refreshed every 3 days for 12 days. Following EMT treatment, one set of cells were immunostained for E-cadherin, vimentin and fibronectin expression, three widely used EMT markers. Another set of cells was harvested, stained for CD44 and CD24 expression and analyzed by flow cytometry as described in Example 27.
# For immunostaining of E-cadherin, vimentin and fibronectin, cells were fixed and permeabilized on the culture plates and incubated with FITC-conjugated antibodies against E-cadherin, vimentin and fibronectin using a standard cell staining protocol. Following removal of unbound antibody, the cells were counterstained with the nuclear dye 4′,6-diamidino-2-phenylindole (DAPI). After staining, phase contrast and fluorescent images of the cells were taken using a fluorescence microscope, equipped with the appropriate filters and a digital camera, using a 100× objective.
compound,measurement,setting,value
COc1ccc(CCN(C)CCCC(C#N)(c2ccc(OC)c(OC)c2)C(C)C)cc1OC (stereo not shown) [Verapamil],"side population, percent of registered events",mouse bone marrow cells; 50 μM,3.74±0.3%
same,"side population, percent of registered events",mouse bone marrow cells; 100 μM,1.76±0.1%
COC(=O)[C@H]1[C@H]2C[C@@H]3c4[nH]c5cc(OC)ccc5c4CCN3C[C@H]2C[C@@H](OC(=O)c2cc(OC)c(OC)c(OC)c2)[C@@H]1OC [reserpine],side population cells,[1]; 12.5 μM,1.51±0.1%
same,side population cells,[1]; 25 μM,0.56±0.08%
same,side population cells,[1]; 50 μM,0.51±0.01%
same,side population cells,[1]; 200 μM,0.48±0.06%
CCN(CC)c1ccc(C=O)cc1 [DEAB],ALDH− cells,ALDH1; CD44/CD24 staining set,99.9%
same,ALDH+ cells,ALDH1; CD44/CD49f staining set,0.09%
same,ALDH− cells,ALDH1; CD44/CD49f staining set,99.9%
same,ALDH+ cells,"ALDH1; GI-101 cells, CD44/CD24 staining set",0.09%
TGF-β1: transforming growth factor β used to induce EMT,CD44^+/CD24^−/low cells,"HMLE cells; 2.5 ng/mL, 12 days EMT induction",51.9%±3
same,"EMT marker expression (E-cadherin, vimentin, fibronectin)","HMLE cells; 12 days post-EMT induction, versus non-induced",E-cadherin expression was down-regulated; also recorded: vimentin expression was up-regulated; also recorded: fibronectin expression was up-regulated
"COc1ccc2c3c([nH]c2c1)[C@H](C=C(C)C)N1C(=O)[C@@H]2CCCN2C(=O)[C@@H]1C3 [FTC, Fumitremorgin C]",side population cells,[1]; 25 μM,1.31±0.2%
same,side population cells,[1]; 50 μM,0.92±0.2%
same,side population cells,[1]; 100 μM,0.62±0.1%
same,side population cells,[1]; 200 μM,0.46±0.08%
